# Test results from patent US9828333B2, “Compounds for the treatment of influenza” (CHRISTIAN-ALBRECHTS-UNIVERSITAT ZU KIEL, priority 2011, dated 2017).
# Several values for one entry are separate records, joined by “and”; a condition that tells them apart may be missing. Identical values can stand only once. Counter-ions that a name gives are not always drawn. Like-named read-outs stand apart in the source and are kept apart here.
# Experiments:
# [1] = target: albumin (Homo sapiens, UniProt P02768); type: in vitro ADME; details: 4% albumin solution, average of three concentrations (10, 25, 50 μM)
# Method: 3. Determination of Protein Binding of the Amidine Effective Form (3) as Well as of Prodrugs Thereof (2, 4) and of the Guanidine Effective Form (9) as Well as of Prodrugs Thereof (6, 10)
# The plasma protein binding was carried out in three different concentrations (10, 25, and 50 μM). A 4% albumin solution was used as protein solutions. In each case, 50 μl of a 10-fold concentrated substance solution were pipetted in 450 μl of the protein solution. The incubation was carried out for 15 minutes in the shaking water bath at 37° C. Subsequently, the samples were transferred in ultra-filtration units (Vivaspin 500, 10 kDa cut-off) and centrifuged for 15 min at 10.000 rpm. The filtrate was analyzed by HPLC. In addition, a control was run for each concentration, which was not treated with protein and not centrifuged.
# [2] = physchem; type: physicochemical; details: thermodynamic from solid; for solubility: read-out: maximum soluble concentration
# Method: 2. Solubility Assays of the Compounds Tested
# Determining the Solubility at Different pH Values:
# Therefor, a few mg of the compounds were weighed and mixed with the volume of 50 mM KH2PO4 buffer of respective pH value for a 50 mM solution. […] Subsequently, the undissolved portion was removed by centrifugation at 10.000 rpm for 15 min, and the concentration in the supernatant was determined by HPLC.
# [3] = in vivo; details: Sprague Dawley, rat, in vivo, po, 50 mg/kg
# Method: Sprague Dawley (SD) rats were supplied for habitation 10 days before the start of the experiment, weighing ˜300-350 g and kept in an air conditioned room with a constant temperature of 20° C. and a humidity of 50%. In this room there was a day-night rhythm of twelve hours. The dark phase began daily at 18 o'clock and turned over to the light phase at 6 clock. The rats were kept over the acclimatization period in standard cages of the size 3 (length: 42 cm, width 26 cm, height: 15 cm) and transferred three days before commencement of an experiment into a special experimental room, placed in the identical environmental conditions. They received a maintenance diet (maintenance diet for rats and mice; No. 1320; Altromin) and tap water ad libitum.
# A catheter was implanted in the vein as well as in the arteria femoralis of rats receiving an i.v. administration. Rats receiving only oral administration of substances received a […] catheter only.
# The catheterized animals were kept after surgery for a day in the experimental room and individually in their experimental cages. The application of the test compounds was carried out on the second day after the operation. On the experimental day, the rats were weighed one hour prior to the test and the arterial catheter was flushed with 300 μl of heparin solution. Subsequently, the i.v. or oral administration of the compounds was carried out.
# The oral administrations were performed as a suspension or solution made with gum arabic (10% w/v) by gavage.
# The oral administrations were made as suspension or solution with gum arabic (10% w/v) by gavage.
# After i.v. administration, plasma samples were taken at 5, 10, 20, 45, 90, 150, 240 and 360 min, respectively after oral administration after 30, 60, 90, 120, 180, 240 and 360 min. To this, in each case 300 μl of whole blood were taken using an insulin syringe and transferred into EDTA-coated Microvettes CB 300 (Sarstedt, Nümbrecht). After each withdrawal it was rinsed with 100 μl 0.9% saline or every 60 min with heparin solution (250 IU/ml). The blood sample was shaken briefly and put until centrifugation (4° C.; 14000 U/min; 10 min) on ice. Subsequently, the samples were frozen at −80° C.
# The plasma samples were processed and analyzed by HPLC. Therefor, the plasma samples were thawed at room temperature. In each case, 80 μl methanol (+0.2% TFA) were prepared and subsequently 80 μl of the plasma samples were pipetted into. The samples were shaken for 45 min to precipitate plasma proteins. The samples were frozen at −80° C., thawed and shaken for another 15 min. The samples were centrifuged for 15 min at 13.000 RPM and the supernatant was transferred into HPLC vials. In each case 50 μl were used for the determinations by LC/MS.
# The animal studies were evaluated using the following LC/MS method.
# [4] = test system: influenza A virus A/Jena/5258/2009; experiment: microbe, parasite or virus in culture; type: cell-based, influenza A virus H1N1; details: read-out: 50% inhibitory concentration, A/Jena/5258/2009
# [5] = test system: influenza A virus A/342/2009; experiment: microbe, parasite or virus in culture; type: cell-based, influenza A virus H1N1; details: read-out: 50% inhibitory concentration, A/342/2009
# [6] = test system: influenza A virus A/Jena/5258/2009 (pandemic H1N1; oseltamivir-sensitive); type: cell-based
# Sequence of albumin (P02768 25-609): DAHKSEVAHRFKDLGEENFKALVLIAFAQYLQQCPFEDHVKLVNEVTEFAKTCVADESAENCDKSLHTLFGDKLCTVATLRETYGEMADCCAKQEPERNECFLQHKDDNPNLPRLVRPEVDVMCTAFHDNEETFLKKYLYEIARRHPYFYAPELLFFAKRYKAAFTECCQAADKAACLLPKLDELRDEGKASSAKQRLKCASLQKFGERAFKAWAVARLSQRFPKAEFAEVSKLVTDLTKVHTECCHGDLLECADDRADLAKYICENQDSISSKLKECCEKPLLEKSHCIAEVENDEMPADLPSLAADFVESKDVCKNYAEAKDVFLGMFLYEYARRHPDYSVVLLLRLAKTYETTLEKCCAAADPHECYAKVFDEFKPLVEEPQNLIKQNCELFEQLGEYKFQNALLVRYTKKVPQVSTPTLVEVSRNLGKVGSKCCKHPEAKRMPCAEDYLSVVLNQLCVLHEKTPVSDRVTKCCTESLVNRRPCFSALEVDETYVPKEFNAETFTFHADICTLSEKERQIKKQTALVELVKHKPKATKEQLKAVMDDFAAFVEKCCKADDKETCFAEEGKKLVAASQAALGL
SMILES,Protein binding [1],solubility at 30 min ([2]; aqueous buffer),"solubility at 30 min ([2]; pH 2, aqueous buffer)","solubility at 30 min ([2]; pH 7.4, aqueous buffer)","solubility at 30 min ([2]; pH 9, aqueous buffer)",Bioavailability [3],Plasma level of derivative 3 (Conc.) after oral administration of the labelled derivative ([3]; 0 min),Plasma level of derivative 3 (Conc.) after oral administration of the labelled derivative ([3]; 30 min),Plasma level of derivative 3 (Conc.) after oral administration of the labelled derivative ([3]; 60 min),Plasma level of derivative 3 (Conc.) after oral administration of the labelled derivative ([3]; 90 min),Plasma level of derivative 3 (Conc.) after oral administration of the labelled derivative ([3]; 120 min),Plasma level of derivative 3 (Conc.) after oral administration of the labelled derivative ([3]; 180 min),Plasma level of derivative 3 (Conc.) after oral administration of the labelled derivative ([3]; 240 min),Plasma level of derivative 3 (Conc.) after oral administration of the labelled derivative ([3]; 360 min),also measured
"CCOC(=O)C1=C[C@@H](OC(CC)CC)[C@H](NC(C)=O)[C@@H](NC(C)=N)C1 [Compound 2, (3R,4R,5S)-4-acetamido-5-(N-acetimidamido)-3-(1-ethylpropoxy)cyclohex-1-en-1-carboxylic acid ethyl ester hydrobromide]",34.8 ± 8.8%,> 50 mM,> 17700 µg/mL and > 50000 µM,> 17700 µg/mL and > 50000 µM,> 17700 µg/mL and > 50000 µM,0.8%,0 nM,430 nM,350 nM,330 nM,290 nM,70 nM,10 nM,0 nM,–
"CCOC(=O)C1=C[C@@H](OC(CC)CC)[C@H](NC(C)=O)[C@@H](N/C(C)=N/O)C1 [Compound 4, (3R,4R,5S)-4-acetamido-5-[N—(N′-hydroxy)acetimidamido]-3-(1-ethylpropoxy)cyclohex-1-en-1-carboxylic acid ethyl ester]",26.7 ± 2.5%,> 20 mM,> 18500 µg/mL and > 50000 µM,8600 ± 400 µg/mL,8600 ± 700 µg/mL,–,0 nM,6500 nM,8980 nM,8800 nM,8100 nM,6430 nM,5340 nM,2190 nM,"solubility ([2]; aqueous buffer, pH 7.4, 50 mM KH2PO4 buffer): 23.2 ± 1.2 mM; solubility ([2]; aqueous buffer, pH 9.0, 50 mM KH2PO4 buffer): 23.3 ± 1.8 mM; Plasma level of intermediary metabolite 11 (Conc.) after oral administration of derivative 4 ([3]; 0 min): 0 nM; Plasma level of intermediary metabolite 11 (Conc.) after oral administration of derivative 4 ([3]; 30 min): 7220 nM; Plasma level of intermediary metabolite 11 (Conc.) after oral administration of derivative 4 ([3]; 60 min): 2680 nM; Plasma level of intermediary metabolite 11 (Conc.) after oral administration of derivative 4 ([3]; 90 min): 2160 nM; Plasma level of intermediary metabolite 11 (Conc.) after oral administration of derivative 4 ([3]; 120 min): 1960 nM; Plasma level of intermediary metabolite 11 (Conc.) after oral administration of derivative 4 ([3]; 180 min): 850 nM; Plasma level of intermediary metabolite 11 (Conc.) after oral administration of derivative 4 ([3]; 240 min): 490 nM; Plasma level of intermediary metabolite 11 (Conc.) after oral administration of derivative 4 ([3]; 360 min): 130 nM"
"CCOC(=O)C1=C[C@@H](OC(CC)CC)[C@H](NC(C)=O)[C@@H](NC(N)=NO)C1 [Compound 6, (3R,4R,5S)-4-acetamido-[N—(N′ hydroxy)guanidino]-3-(1-ethylpropoxy)cyclohex-1-en-1-carboxylic acid ethyl ester]",37.5 ± 10.1%,> 50 mM,> 18500 µg/mL and > 50000 µM,> 18500 µg/mL and > 50000 µM,> 18500 µg/mL and > 50000 µM,1.7%,–,–,–,–,–,–,–,–,Plasma level of derivative 9 (Conc.) after oral administration of the labelled derivative ([3]; 0 min): 0 nM; Plasma level of intermediary metabolite 12 (Conc.) after oral administration of derivative 6 ([3]; 0 min): 0 nM; Plasma level of derivative 9 (Conc.) after oral administration of the labelled derivative ([3]; 30 min): 200 nM; Plasma level of intermediary metabolite 12 (Conc.) after oral administration of derivative 6 ([3]; 30 min): 200 nM; Plasma level of derivative 9 (Conc.) after oral administration of the labelled derivative ([3]; 60 min): 220 nM; Plasma level of intermediary metabolite 12 (Conc.) after oral administration of derivative 6 ([3]; 60 min): 160 nM; Plasma level of derivative 9 (Conc.) after oral administration of the labelled derivative ([3]; 90 min): 180 nM; Plasma level of intermediary metabolite 12 (Conc.) after oral administration of derivative 6 ([3]; 90 min): 200 nM; Plasma level of derivative 9 (Conc.) after oral administration of the labelled derivative ([3]; 120 min): 190 nM; Plasma level of intermediary metabolite 12 (Conc.) after oral administration of derivative 6 ([3]; 120 min): 190 nM; Plasma level of derivative 9 (Conc.) after oral administration of the labelled derivative ([3]; 180 min): 210 nM; Plasma level of intermediary metabolite 12 (Conc.) after oral administration of derivative 6 ([3]; 180 min): 80 nM; Plasma level of derivative 9 (Conc.) after oral administration of the labelled derivative ([3]; 240 min): 180 nM; Plasma level of intermediary metabolite 12 (Conc.) after oral administration of derivative 6 ([3]; 240 min): 10 nM; Plasma level of derivative 9 (Conc.) after oral administration of the labelled derivative ([3]; 360 min): 50 nM; Plasma level of intermediary metabolite 12 (Conc.) after oral administration of derivative 6 ([3]; 360 min): 0 nM
CCOC(=O)C1=C[C@@H](OC(CC)CC)[C@H](NC(C)=O)[C@@H](NC(=N)N)C1 [Compound 10],30.1 ± 2.3%,> 50 mM,> 23400 µg/mL and > 50000 µM,> 23400 µg/mL and > 50000 µM,> 23400 µg/mL and > 50000 µM,1.1%,–,–,–,–,–,–,–,–,–
"CC(=O)N[C@H]1[C@H]([C@H](O)[C@H](O)CO)OC(C(=O)O)=C[C@@H]1N=C(N)N [Zanamivir, reference compound]",–,–,–,–,–,–,–,–,–,–,–,–,–,–,"IC50 [4]: > 19500 nM; IC50 [5]: 600 nM; 90% inhibitory concentration, A/Jena/5258/2009 [6]: 0.125 (0.219) μM; 95% inhibitory concentration (values in parentheses), A/Jena/5258/2009 [6]: 0.125 (0.219) μM"
